Converted amounts (≈) assume the structure as drawn.

Experimental findings from ChEMBL document CHEMBL1158246, “New cytotoxic briaran diterpenes from the Formosan gorgonian Briareum sp” (1996) are described below.

In one test the test system is A549. Kind of test: Cytotoxicity against human A549 cells. Type of test: functional. The note with it: read-out: ED50 (the source's name).
For the molecule `CC(=O)O[C@H]1C[C@@H]2O[C@]2(C)[C@@H]2[C@@H](OC(C)=O)[C@]34O[C@]3(C)C(=O)O[C@H]4/C=C(/C)CC[C@@H](OC(C)=O)[C@@]12C`, the EC50 worked out at 17.4 µg/mL (≈ 34.3 µM).
On to `CC(=O)O[C@H]1C[C@@H]2O[C@]2(C)[C@@H]2[C@@H](O)[C@]34O[C@]3(C)C(=O)O[C@H]4/C=C(/C)CC[C@@H](OC(C)=O)[C@@]12C`, for which the EC50 is above 50 µg/mL.
Take `CC(=O)O[C@H]1CC=C(C)[C@@H]2[C@@H](O)[C@]34O[C@]3(C)C(=O)O[C@H]4/C=C(/C)CC[C@@H](OC(C)=O)[C@@]12C`: the EC50 turned out to be 10.3 µg/mL (≈ 23.1 µM).
The same measure, in the same setting: the figure for `CC(=O)O[C@H]1CC=C(C)[C@@H]2[C@@H](OC(C)=O)[C@]34O[C@]3(C)C(=O)O[C@H]4/C=C(/C)CC[C@@H](OC(C)=O)[C@@]12C` [BRIAREOLIDE H] is above 50 µg/mL.

In another test the test system is HT-29. The test can be described thus: Cytotoxicity against human HT29 cells. It is filed as functional. The following applies: read-out: ED50 (the source's name).
In the case of `CC(=O)O[C@H]1C[C@@H]2O[C@]2(C)[C@@H]2[C@@H](OC(C)=O)[C@]34O[C@]3(C)C(=O)O[C@H]4/C=C(/C)CC[C@@H](OC(C)=O)[C@@]12C`, the EC50 was determined as 10.1 µg/mL (≈ 19.9 µM).
Same read-out and setting: the same measure for `CC(=O)O[C@H]1C[C@@H]2O[C@]2(C)[C@@H]2[C@@H](O)[C@]34O[C@]3(C)C(=O)O[C@H]4/C=C(/C)CC[C@@H](OC(C)=O)[C@@]12C`: 6.96 µg/mL (≈ 15 µM); for `CC(=O)O[C@H]1CC=C(C)[C@@H]2[C@@H](O)[C@]34O[C@]3(C)C(=O)O[C@H]4/C=C(/C)CC[C@@H](OC(C)=O)[C@@]12C`: 8.27 µg/mL (≈ 18.4 µM); for `CC(=O)O[C@H]1CC=C(C)[C@@H]2[C@@H](OC(C)=O)[C@]34O[C@]3(C)C(=O)O[C@H]4/C=C(/C)CC[C@@H](OC(C)=O)[C@@]12C` [BRIAREOLIDE H]: 0.29 µg/mL (≈ 0.591 µM).

In another test the test system is P388. The test can be described thus: Cytotoxicity against mouse P388 cells. Type of test: functional. The note with it: read-out: ED50 (the source's name).
As for `CC(=O)O[C@H]1C[C@@H]2O[C@]2(C)[C@@H]2[C@@H](OC(C)=O)[C@]34O[C@]3(C)C(=O)O[C@H]4/C=C(/C)CC[C@@H](OC(C)=O)[C@@]12C`, the EC50 amounted to 1.59 µg/mL (≈ 3.14 µM).
Still for that read-out and setting: the figure for `CC(=O)O[C@H]1C[C@@H]2O[C@]2(C)[C@@H]2[C@@H](O)[C@]34O[C@]3(C)C(=O)O[C@H]4/C=C(/C)CC[C@@H](OC(C)=O)[C@@]12C` is 0.61 µg/mL (≈ 1.31 µM); for `CC(=O)O[C@H]1CC=C(C)[C@@H]2[C@@H](O)[C@]34O[C@]3(C)C(=O)O[C@H]4/C=C(/C)CC[C@@H](OC(C)=O)[C@@]12C` it is 0.28 µg/mL (≈ 0.624 µM).
On the same count and under the same terms, the same measure for `CC(=O)O[C@H]1CC=C(C)[C@@H]2[C@@H](OC(C)=O)[C@]34O[C@]3(C)C(=O)O[C@H]4/C=C(/C)CC[C@@H](OC(C)=O)[C@@]12C` [BRIAREOLIDE H]: 3.1 µg/mL (≈ 6.32 µM).

A further test has as its system KB. The test can be described thus: Cytotoxicity against human KB cells. Type of test: functional. The note with it: read-out: ED50 (the source's name).
For the molecule `CC(=O)O[C@H]1C[C@@H]2O[C@]2(C)[C@@H]2[C@@H](OC(C)=O)[C@]34O[C@]3(C)C(=O)O[C@H]4/C=C(/C)CC[C@@H](OC(C)=O)[C@@]12C`, the EC50 is 24.4 µg/mL (≈ 48.3 µM).
Still for that read-out and setting: the same measure for `CC(=O)O[C@H]1C[C@@H]2O[C@]2(C)[C@@H]2[C@@H](O)[C@]34O[C@]3(C)C(=O)O[C@H]4/C=C(/C)CC[C@@H](OC(C)=O)[C@@]12C`: above 50 µg/mL; for `CC(=O)O[C@H]1CC=C(C)[C@@H]2[C@@H](O)[C@]34O[C@]3(C)C(=O)O[C@H]4/C=C(/C)CC[C@@H](OC(C)=O)[C@@]12C`: 0.27 µg/mL (≈ 0.602 µM); for `CC(=O)O[C@H]1CC=C(C)[C@@H]2[C@@H](OC(C)=O)[C@]34O[C@]3(C)C(=O)O[C@H]4/C=C(/C)CC[C@@H](OC(C)=O)[C@@]12C` [BRIAREOLIDE H]: above 50 µg/mL.
